Source: article PMC10817917, “Alkyl deoxyglycoside-polymyxin combinations against critical priority carbapenem-resistant gram-negative bacteria” (Scientific Reports, 2024)
Where “and” joins values, the source holds several entries; their conditions need not be identical. Identical values can stand only once. Like-named read-outs stand apart in the source and are kept apart here.

Experiments:
E. coli NCTC 13846 = assay: Broth microdilution MIC/MBC, glycosides with or without polymyxins; assay type: cell-based, Escherichia coli; settings: strain B
P. aeruginosa CQ4924 = assay: Broth microdilution MIC, glycosides with or without polymyxins; assay type: cell-based, Pseudomonas aeruginosa; settings: for MIC: Pseudomonas aeruginosa, CQ4924
A. baumannii CQ4322 = assay: Broth microdilution MIC/MBC, glycosides with or without polymyxins; assay type: cell-based, Acinetobacter baumannii; settings: for MIC: Acinetobacter baumannii, CQ4322
E. coli ATCC 25922 = assay: as above; assay type: cell-based, Escherichia coli; settings: for MIC: Escherichia coli, ATCC25922
[1] = alone, read-out: MICA (MIC of each compound individually)
[2] = combination with the lowest FICI
[3] = compound + colistin, lowest FICI

Structure (SMILES): CCCCCCCCCCCC[C@H]1O[C@H](C)C[C@H](O)[C@H]1O [Compound 5, 1-(4,6-dideoxy-α-D-xylo-hexopyranosyl)dodecane]
- MIC of colistin in combination with the compound (E. coli NCTC 13846; Cpd conc. 0.4 μg/mL): > 0.5 µg/mL
- MIC of colistin in combination with the compound (E. coli NCTC 13846; Cpd conc. 0.8 μg/mL): > 0.5 µg/mL
- MIC of colistin in combination with the compound (E. coli NCTC 13846; Cpd conc. 3.125 μg/mL): > 0.5 µg/mL
- MIC of colistin in combination with the compound (E. coli NCTC 13846; Cpd conc. 6.25 μg/mL): > 0.5 µg/mL
- MIC of colistin in combination with the compound (E. coli NCTC 13846; Cpd conc. 12.5 μg/mL): > 0.5 µg/mL
- MIC of colistin in combination with the compound (E. coli NCTC 13846; Cpd conc. […]): > 0.5 µg/mL
- MIC (E. coli NCTC 13846; Escherichia coli, NCTC13846, agent alone, no adjuvant (polymyxin conc. 0), read-out: MIC): > 100 µg/mL
- MIC of compound in combination with PMB (E. coli NCTC 13846; PMB 0.25 μg/mL): > 100 µg/mL
- MIC of compound in combination with PMB (E. coli NCTC 13846; PMB 0.5 μg/mL): > 100 µg/mL
- MIC of compound in combination with colistin (E. coli NCTC 13846; colistin 0.06 μg/mL): > 100 µg/mL
- MBC of compound in combination with colistin (E. coli NCTC 13846; colistin 0.125 μg/mL): > 100|> 100 μg/mL
- MIC of compound in combination with colistin (E. coli NCTC 13846; colistin 0.125 μg/mL): > 100|> 100 μg/mL
- MIC of compound in combination with colistin (E. coli NCTC 13846; colistin 0.25 μg/mL): > 100 µg/mL
- MIC of compound in combination with colistin (E. coli NCTC 13846; colistin 0.5 μg/mL): > 100 µg/mL
- MIC of colistin in combination with the compound (P. aeruginosa CQ4924; Cpd conc. 0.4 μg/mL, strain H): > 0.5 µg/mL
- MIC of colistin in combination with the compound (P. aeruginosa CQ4924; Cpd conc. 0.8 μg/mL, strain H): > 0.5 µg/mL
- MIC of colistin in combination with the compound (P. aeruginosa CQ4924; Cpd conc. 3.125 μg/mL, strain H): 0.5 µg/mL
- MIC of colistin in combination with the compound (P. aeruginosa CQ4924; Cpd conc. 6.25 μg/mL, strain H): 0.5 µg/mL
- MIC of colistin in combination with the compound (P. aeruginosa CQ4924; Cpd conc. 12.5 μg/mL, strain H): 0.5 µg/mL
- MIC of colistin in combination with the compound (P. aeruginosa CQ4924; Cpd conc. […], strain H): > 0.5 µg/mL
- MIC of compound in combination with PMB (P. aeruginosa CQ4924; PMB 0.25 μg/mL, strain H): > 100 µg/mL
- MIC of compound in combination with PMB (P. aeruginosa CQ4924; PMB 0.5 μg/mL, strain H): 6.3 µg/mL
- MIC (P. aeruginosa CQ4924; agent alone, no adjuvant (polymyxin conc. 0), strain H, read-out: MIC): > 100 µg/mL
- MIC (P. aeruginosa CQ4924; [1]): > 100 µg/mL
- MIC of compound in combination with colistin (P. aeruginosa CQ4924; colistin 0.06 μg/mL, strain H): > 100 µg/mL
- MIC of compound in combination with colistin (P. aeruginosa CQ4924; colistin 0.125 μg/mL, strain H): > 100 µg/mL
- MIC of compound in combination with colistin (P. aeruginosa CQ4924; colistin 0.25 μg/mL, strain H): > 100 µg/mL
- MIC of compound in combination with colistin (P. aeruginosa CQ4924; colistin 0.5 μg/mL, strain H): 3.1 µg/mL
- MICA(A + B) (MIC of compound in combination with colistin) (P. aeruginosa CQ4924; [2]): 3.125 µg/mL
- MICB(A + B) (MIC of colistin in combination with compound) (P. aeruginosa CQ4924; [2]): 0.5 µg/mL
- Interpretation (of FICI) (P. aeruginosa CQ4924; compound + colistin): Additive (from 0.5 to 1.0 were additive)
- FICI (P. aeruginosa CQ4924; [3]): 0.52
- MIC (A. baumannii CQ4322; agent alone, no adjuvant (polymyxin conc. 0), strain G, read-out: MIC): > 100 µg/mL
- MIC (A. baumannii CQ4322; [1]): > 100 µg/mL
- MIC of colistin in combination with the compound (A. baumannii CQ4322; Cpd conc. 0.4 μg/mL, strain G): > 0.5 µg/mL
- MIC of colistin in combination with the compound (A. baumannii CQ4322; Cpd conc. 0.8 μg/mL, strain G): 0.5 µg/mL
- MIC of colistin in combination with the compound (A. baumannii CQ4322; Cpd conc. 3.125 μg/mL, strain G): 0.25 µg/mL
- MIC of colistin in combination with the compound (A. baumannii CQ4322; Cpd conc. 6.25 μg/mL, strain G): 0.25 µg/mL
- MIC of colistin in combination with the compound (A. baumannii CQ4322; Cpd conc. 12.5 μg/mL, strain G): 0.25 µg/mL
- MIC of colistin in combination with the compound (A. baumannii CQ4322; Cpd conc. […], strain G): 0.5 µg/mL
- MIC of compound in combination with PMB (A. baumannii CQ4322; PMB 0.25 μg/mL, strain G): > 100 µg/mL
- MIC of compound in combination with PMB (A. baumannii CQ4322; PMB 0.5 μg/mL, strain G): 3.1 µg/mL
- MIC of compound in combination with colistin (A. baumannii CQ4322; colistin 0.06 μg/mL, strain G): > 100 µg/mL
- MBC of compound in combination with colistin (A. baumannii CQ4322; colistin 0.125 μg/mL, strain G): 25|25 μg/mL
- MIC of compound in combination with colistin (A. baumannii CQ4322; colistin 0.125 μg/mL, strain G): 25 μg/mL and 25|25 μg/mL
- MIC of compound in combination with colistin (A. baumannii CQ4322; colistin 0.25 μg/mL, strain G): 3.1 µg/mL
- MIC of compound in combination with colistin (A. baumannii CQ4322; colistin 0.5 μg/mL, strain G): 0.8 µg/mL
- MICA(A + B) (MIC of compound in combination with colistin) (A. baumannii CQ4322; [2]): 25 µg/mL
- MICB(A + B) (MIC of colistin in combination with compound) (A. baumannii CQ4322; [2]): 0.125 µg/mL
- FICI (A. baumannii CQ4322; [3]): 0.38
- MIC of colistin in combination with the compound (E. coli ATCC 25922; Cpd conc. 0.4 μg/mL, strain A): > 0.5 µg/mL
- MIC of colistin in combination with the compound (E. coli ATCC 25922; Cpd conc. 0.8 μg/mL, strain A): > 0.5 µg/mL
- MIC of colistin in combination with the compound (E. coli ATCC 25922; Cpd conc. 3.125 μg/mL, strain A): 0.25 µg/mL
- MIC of colistin in combination with the compound (E. coli ATCC 25922; Cpd conc. 6.25 μg/mL, strain A): 0.125 µg/mL
- MIC of colistin in combination with the compound (E. coli ATCC 25922; Cpd conc. 12.5 μg/mL, strain A): ≤ 0.06 µg/mL
- MIC of colistin in combination with the compound (E. coli ATCC 25922; Cpd conc. […], strain A): 0.5 µg/mL
- MIC (E. coli ATCC 25922; agent alone, no adjuvant (polymyxin conc. 0), strain A, read-out: MIC): > 100 µg/mL
- MIC (E. coli ATCC 25922; [1]): > 100 µg/mL
- MIC of compound in combination with PMB (E. coli ATCC 25922; PMB 0.25 μg/mL, strain A): 3.1 µg/mL
- MIC of compound in combination with PMB (E. coli ATCC 25922; PMB 0.5 μg/mL, strain A): 3.1 µg/mL
- MIC of compound in combination with colistin (E. coli ATCC 25922; colistin 0.06 μg/mL, strain A): 12.5 µg/mL
- MBC of compound in combination with colistin (E. coli ATCC 25922; colistin 0.125 μg/mL, strain A): 6.3|6.3 μg/mL
- MIC of compound in combination with colistin (E. coli ATCC 25922; colistin 0.125 μg/mL, strain A): 6.3 μg/mL and 6.3|6.3 μg/mL
- MIC of compound in combination with colistin (E. coli ATCC 25922; colistin 0.25 μg/mL, strain A): 3.1 µg/mL
- MIC of compound in combination with colistin (E. coli ATCC 25922; colistin 0.5 μg/mL, strain A): 1.6 µg/mL
- MICA(A + B) (MIC of compound in combination with colistin) (E. coli ATCC 25922; [2]): 12.5 µg/mL
- MICB(A + B) (MIC of colistin in combination with compound) (E. coli ATCC 25922; [2]): 0.06 µg/mL
- Interpretation (of FICI) (E. coli ATCC 25922; compound + colistin): Synergy (Values ≤ 0.5 were considered synergistic)
- FICI (E. coli ATCC 25922; [3]): 0.18
